From PMC2844090 (Journal of medicinal chemistry, 2009)

Legend:
[1] = target: T1, human kynurenine aminotransferase I (hKAT I) (Homo sapiens, UniProt Q16773); experiment: transamination assay, HPLC of KYNA; format: biochemical
T1 sequence (Q16773 1-422): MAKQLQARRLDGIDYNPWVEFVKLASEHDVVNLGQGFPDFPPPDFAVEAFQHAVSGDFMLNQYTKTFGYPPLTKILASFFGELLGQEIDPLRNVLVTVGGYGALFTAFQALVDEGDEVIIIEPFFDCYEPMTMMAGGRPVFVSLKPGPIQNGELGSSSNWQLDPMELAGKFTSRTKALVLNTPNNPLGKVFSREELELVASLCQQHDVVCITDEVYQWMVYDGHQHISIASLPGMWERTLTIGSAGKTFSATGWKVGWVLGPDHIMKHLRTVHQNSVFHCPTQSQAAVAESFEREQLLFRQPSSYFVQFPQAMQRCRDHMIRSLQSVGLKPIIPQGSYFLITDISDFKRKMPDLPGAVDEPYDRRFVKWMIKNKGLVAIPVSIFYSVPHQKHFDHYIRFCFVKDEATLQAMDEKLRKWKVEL

[2] = target: T1, human kynurenine aminotransferase I (hKAT I); experiment: transamination assay, HPLC of KYNA; format: biochemical; remark: listed apart in the source
[3] = target: T1, human kynurenine aminotransferase I (hKAT I); experiment: co-crystal structure at […] Å; format: binding

Structure (SMILES)	transamination assay, HPLC of KYNA (0.08-10 mM); competing substrate [2]	other results
O=C(O)/C=C/c1c[nH]c2ccccc12 [trans-3-indoleacrylic acid]	–	transamination assay, HPLC of KYNA (0.08-10 mM) [1]: All six of the chemicals strongly inhibited hKAT I
N[C@@H](Cc1c[nH]c2ccccc12)C(=O)O [tryptophan]	Figure 6B shows the inhibitions of tryptophan and indole-3-pyruvic acid	–
NC(CO)(CO)CO [Tris]	–	co-crystal structure at 1.50 Å (one of two subunits) [3]: Tris lies near the PLP cofactor and that the Tris amine does not form an external aldimine with PLP
O=C(O)C(=O)Cc1c[nH]c2ccccc12 [indole-3-pyruvic acid]	Figure 6B shows the inhibitions of tryptophan and indole-3-pyruvic acid	–
